Laboratory results reported in patent publication US20230165867A1 (CHENGDU BAIYU PHARMACEUTICAL CO., LTD., priority 2020, published 2023).
Read-outs that look alike come from different tables or passages of the source.

Assays:
[1] = Metabolic stability in liver microsomes; assay type: in vitro ADME, human; conditions: human, human liver microsomes; 0.5 µM test substance, 0.5 mg/mL microsomes, NADPH and UDPGA, 37° C.; read-out: T½(min), stability in human liver microsomes
Protocol: Liver microsomes (purchased from Reed Liver Disease Research (Shanghai) Co., Ltd., product: human liver microsomes (NJT)); NADPH (purchased from Roche, Lot: 40939); UDPGA; the compounds of the present invention (test substances).
• (1) A mixed working solution of testosterone (0.5 µM) and 7-hydroxycoumarin (0.5 µM) was prepared. • (2) A mixed solution of NADPH (1 mM) and UDPGA (1 mM) was prepared, and prewarmed at 37° C. in a water bath shaker before use. • (3) Liver microsomes were thawed and diluted with a buffer. • (4) A preparation of a test substance (0.5 µM) and a solution of liver microsomes (0.5 mg/mL) were added to each well of an incubation plate. • (5) Three experimental groups were set and samples were added. Test group: the test substance was incubated with liver microsomes for 0 min, 30 min, 60 min, and 120 min in the presence of the coenzyme NADPH and UDPGA; Positive control group: testosterone (0.5 µM) and 7-hydroxycoumarin (0.5 µM) were incubated with microsomes for 0 min and 120 min in the presence of the coenzyme NADPH and UDPGA; Negative control group: the test substance was incubated with microsomes for 0 and 120 min without any coenzyme. • (6) All samples were incubated at 37° C., and pre-cooled methanol was added at each termination time (0, 15, 30, 45, 60 min, 120 min) to terminate the reaction, and the time was recorded. • (7) All samples were mixed well and centrifuged at 4000 rpm for 10 min. The supernatant was taken and measured by LC-MS/MS for the amount of the test substance remaining in the samples. Data analysis was carried out as follows: T½=0.693 /k, Clint = (0.693/T½) × (1 /(microsomal protein) × Scaling Factors), Note: k is the slope of the logarithm of the remaining amounts of compound versus time.

[2] = Pharmacokinetic assay in ICR mice (i.v. and p.o.); assay type: in vivo; conditions: mouse, plasma, male ICR mice; for half-life: read-out: T½ (converted); for bioavailability: po 10 mg/kg vs iv 1 mg/kg
Procedure, shortened: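 Fasted male ICR mice (18-22 g) dosed at 1 mg/kg i.v. or 10 mg/kg p.o. in 5% DMSO/95% 30% HP-β-CD, three mice per time point. Submandibular plasma sampled up to 24 h, assayed by LC/MS/MS.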

TTK kinase = target: T1, TTK kinase (Homo sapiens, UniProt P33981); experiment: TTK kinase activity assay (ADP-Glo); assay type: biochemical; conditions: initial concentration 1000 nM, 1:3, 10 dilutions; read-out: IC50 (nM), TTK kinase inhibiting activity
T1 construct: purchased Invitrogen PV3792
T1 sequence (P33981 1-857): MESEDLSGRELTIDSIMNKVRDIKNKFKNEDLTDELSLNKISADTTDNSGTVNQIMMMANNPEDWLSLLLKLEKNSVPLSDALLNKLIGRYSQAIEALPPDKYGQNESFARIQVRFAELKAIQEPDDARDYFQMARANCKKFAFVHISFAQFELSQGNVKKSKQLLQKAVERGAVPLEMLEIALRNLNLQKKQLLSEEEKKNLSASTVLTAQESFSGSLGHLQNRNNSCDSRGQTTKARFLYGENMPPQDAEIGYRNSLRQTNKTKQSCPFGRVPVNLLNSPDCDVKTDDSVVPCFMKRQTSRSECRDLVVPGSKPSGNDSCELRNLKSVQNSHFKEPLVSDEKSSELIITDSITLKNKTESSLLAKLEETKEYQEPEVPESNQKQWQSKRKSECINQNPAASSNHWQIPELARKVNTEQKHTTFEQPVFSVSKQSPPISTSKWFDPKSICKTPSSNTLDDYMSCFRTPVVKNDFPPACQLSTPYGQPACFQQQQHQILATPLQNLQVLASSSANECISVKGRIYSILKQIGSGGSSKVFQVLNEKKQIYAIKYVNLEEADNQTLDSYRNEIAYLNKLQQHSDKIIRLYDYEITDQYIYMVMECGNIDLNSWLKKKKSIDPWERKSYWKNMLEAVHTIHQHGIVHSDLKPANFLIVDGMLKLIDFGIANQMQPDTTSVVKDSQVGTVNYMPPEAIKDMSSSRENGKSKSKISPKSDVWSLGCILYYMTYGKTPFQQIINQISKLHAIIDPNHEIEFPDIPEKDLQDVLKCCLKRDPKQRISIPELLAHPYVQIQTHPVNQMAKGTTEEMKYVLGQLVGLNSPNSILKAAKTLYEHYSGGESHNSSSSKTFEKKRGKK
Protocol: TTK kinase was purchased from Invitrogen, Cat.#: PV3792.
• (1) 1×buffer was prepared by diluting 5×buffer into 1×buffer with ddH2O, and adding 0.05 mM DTT. • (2) The compounds of the present invention were prepared at an initial concentration of 1000 nM, and diluted by 1:3 to obtain 10 serial dilutions. • (3) The diluted compounds of the present invention were added to a 384-well plate (purchased from Greiner, product number 784075) by an Echo 550 pipetting workstation, and centrifuged at 1000 g for 1 min. • (3) A 2×TTK enzyme solution was prepared with the 1×buffer. Then, 2.5 µL of the 2× enzyme solution was added to each well, centrifuged at 1000 g for 30 s, and left at room temperature for 10 min. • (4) A 2×MBP substrate/ATP mixture was prepared with the 1×buffer.

DNA-PK kinase = target: T2, DNA-PK kinase (Homo sapiens, UniProt P78527); experiment: Inhibition assay of DNA-PK kinase (Promega kit, ADP-Glo chemiluminescence); assay type: biochemical; conditions: 50 µM ATP, 37° C., 60 min; read-out: IC50 (nM), inhibitory activity on DNA-PK kinase
T2 construct: purchased Promega V4107
Procedure, shortened: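 Compounds incubated with DNA-PK at 37° C for 60 min; reaction stopped with ADP-Glo reagent (40 min, RT), then kinase detection reagent (30 min, RT). ADP formed read by luminescence against an ADP standard curve.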

Row | SMILES | half-life at 0.5 µM [1] [min] | AUC ([2]; iv, 1 mg/kg) [ng·h/mL] | half-life ([2]; iv, 1 mg/kg) [h] | bioavailability [2] [%] | AUC ([2]; po, 10 mg/kg) [ng·h/mL] | Cmax ([2]; po, 10 mg/kg) [ng/mL] | half-life ([2]; po, 10 mg/kg) [h] | IC50 (TTK kinase) [nM] | IC50 (DNA-PK kinase) [nM]
1 | Cc1cc(C(N)=O)ccc1Nc1ncc2c(n1)n(C1CCOCC1)c(=O)n2C [Compound 2, 3-Methyl-4-((7-methyl-8-oxo-9-(tetrahydro-2H-pyran-4-yl)-8,9-dihydro-7H-purin-2-yl)amino)benzamide] | > 120 | 265 | 0.87 | 38.2 | 1040 | 449 | 1.84 | 275 | –
2 | [2H]C([2H])([2H])Oc1cc(C)c(Nc2ncc3c(n2)n(C2CCOCC2)c(=O)n3C)cn1 [Compound 38, 2-((6-(methoxy-d3)-4-methylpyridin-3-yl)amino)-7-methyl-9-(tetrahydro-2H-pyran-4-yl)-7,9-dihydro-8H-purin-8-one] | > 120 | 269 | 0.341 | 47.7 | 1310 | 2200 | 1.02 | – | 0.47
3 | Cc1sc(C(N)=O)cc1Nc1ncc2c(n1)n(C1CCOCC1)c(=O)n2C [Compound 42, 5-Methyl-4-((7-methyl-8-oxo-9-(tetrahydro-2H-pyran-4-yl)-8,9-dihydro-7H-purin-2-yl)amino)thiophene-2-carboxamide] | > 120 | 230 | 1.41 | 70 | 1500 | 858 | 1.73 | – | 2.05
4 | Cc1cc(C(N)=O)c(F)cc1Nc1ncc2c(n1)n([C@H]1CCOC1)c(=O)n2C [Compound 75, (S)-2-fluoro-5-methyl-4-((7-methyl-8-oxo-9-(tetrahydrofuran-3-yl)-8,9-dihydro-7H-purin-2-yl)amino)benzamiderile] | > 120 | 109 | 0.31 | 69.2 | 756 | 984 | 2.1 | – | 5.69
5 | Cc1cc(C(N)=O)c(F)cc1Nc1ncc2c(n1)n([C@@H]1CCOC1)c(=O)n2C [Compound 76, (R)-2-fluoro-5-methyl-4-((7-methyl-8-oxo-9-(tetrahydrofuran-3-yl)-8,9-dihydro-7H-purin-2-yl)amino)benzamiderile] | > 120 | 120 | 0.3 | 104 | 1360 | 1570 | 0.93 | – | 1.96
6 | Cc1cc(C(N)=O)c(F)cc1Nc1ncc2c(n1)n([C@H]1CC[C@@H](C#N)CC1)c(=O)n2C [Compound 77, 4-((9-(cis-4-cyanocyclohexyl)-7-methyl-8-oxo-8,9-dihydro-7H-purin-2-yl)amino)-2-fluoro-5-methylbenzamide] | > 120 | 545 | 1.55 | 108 | 5970 | 1750 | 3.24 | – | 4.67

More lines, now with the values ahead:

Row | half-life at 0.5 µM [1] [min] | AUC ([2]; iv, 1 mg/kg) [ng·h/mL] | half-life ([2]; iv, 1 mg/kg) [h] | bioavailability [2] [%] | AUC ([2]; po, 10 mg/kg) [ng·h/mL] | Cmax ([2]; po, 10 mg/kg) [ng/mL] | half-life ([2]; po, 10 mg/kg) [h] | IC50 (TTK kinase) [nM] | IC50 (DNA-PK kinase) [nM] | SMILES
7 | > 120 | 234 | 0.333 | 99.4 | 2270 | 835 | 3.21 | 1720 | – | Cc1cc(C#N)ccc1Nc1ncc2c(n1)n(C1CCOCC1)c(=O)n2C [Compound 5, 3-Methyl-4-((7-methyl-8-oxo-9-(tetrahydro-2H-pyran-4-yl)-8,9-dihydro-7H-purin-2-yl)amino)benzonitrile]
8 | > 120 | 639 | 1.52 | 110 | 7100 | 2730 | 2.99 | – | 7.6 | Cn1c(=O)n(C2CCOCC2)c2nc(Nc3ccc(C(N)=O)cc3Cl)ncc21 [Compound 26, 3-Chloro-4-((7-methyl-8-oxo-9-(tetrahydro-2H-pyran-4-yl)-8,9-dihydro-7H-purin-2-yl)amino)benzamide]
9 | > 120 | 609 | 0.46 | 42.1 | 2560 | 1820 | 1.22 | – | 3.9 | CCNC(=O)c1ccc(Nc2ncc3c(n2)n(C2CCOCC2)c(=O)n3C)c(C)c1 [Compound 29, N-ethyl-3-methyl-4-((7-methyl-8-oxo-9-(tetrahydro-2H-pyran-4-yl)-8,9-dihydro-7H-purin-2-yl)amino)benzamide]
10 | > 120 | 840 | 5.22 | 63.9 | 5370 | 2060 | 3.21 | – | 8.07 | CNC(=O)c1cc(C)c(Nc2ncc3c(n2)n(C2CCOCC2)c(=O)n3C)cn1 [Compound 54, N,4-Dimethyl-5-((7-methyl-8-oxo-9-(tetrahydro-2H-pyran-4-yl)-8,9-dihydro-7H-purin-2-yl)amino)picolinamide]
11 | > 120 | 482 | 0.63 | 100 | 4440 | 2490 | 2.15 | – | 1.86 | Cc1cc(C(N)=O)c(F)cc1Nc1ncc2c(n1)n([C@H]1CC[C@H](C#N)CC1)c(=O)n2C [Compound 79, 4-((9-(trans-4-cyanocyclohexyl)-7-methyl-8-oxo-8,9-dihydro-7H-purin-2-yl)amino)-2-fluoro-5-methylbenzamide]
12 | > 120 | 6300 | 3.12 | 33.6 | 21200 | 3570 | 2.16 | – | 11.1 | Cc1cc(C#N)ccc1Nc1ncc2c(n1)n([C@H]1CC[C@H](C#N)CC1)c(=O)n2C [Compound 80, 4-((9-(trans-4-cyanocyclohexyl)-7-methyl-8-oxo-8,9-dihydro-7H-purin-2-yl)amino)-3-methylbenzonitrile]
